ChEMBL document CHEMBL1201862, “PubChem BioAssay data set” (2004)
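Values below derive from 48-hour exposures of cells grown in 96-well plates, with endpoints linearly interpolated between the two concentrations bracketing the appropriate inhibition level. GI50: concentration for 50% inhibition of growth.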 Activity calls are given as the source filed them. Rule as the data show it: active = GI50 up to about 1.1 µM and inactive = higher.

What was measured:
Assay in all cases: growth of human tumour cells (NCI), 48 h
[1] = system: SN12C
[2] = system: NCI-H23
[3] = system: Hs-578T
[4] = system: MCF7
[5] = system: NCI-H460
[6] = system: PC-3
[7] = system: K562
[8] = system: NCI-H522
[9] = system: A549
[10] = system: HCT-116
[11] = system: RXF 393
[12] = system: 786-0
[13] = system: HOP-92
[14] = system: SF-295
[15] = system: IGROV-1
[16] = system: MDA-MB-231
[17] = system: ACHN
[18] = system: DU-145
[19] = system: HT-29
[20] = system: TK-10

Measured: GI50

CC(C)Cc1ccc(C(C)CC2=CCC(CN(C)C)C2=O)cc1 (centres undefined)
inactive: [1] 9.1 µM | [2] 12.9 µM | [3] 18.3 µM | [4] 1.17 µM | [5] 31.7 µM | [6] 14.9 µM | [7] 2.25 µM | [8] 4.06 µM | [9] 18.3 µM | [10] 4.17 µM | [11] 5.78 µM | [12] 1.79 µM | [13] 2.95 µM | [14] 17.1 µM | [15] 9.51 µM | [16] 10.5 µM | [17] 16.7 µM | [18] 16.6 µM | [19] 6.38 µM

N#Cc1nc(COCc2ccccc2)oc1N
inactive: [1] > 100 µM | [2] > 100 µM | [3] > 100 µM | [4] > 100 µM | [6] > 100 µM | [7] 49.7 µM | [8] 2.97 µM | [9] > 100 µM | [10] > 100 µM | [11] > 100 µM | [12] > 100 µM | [13] > 100 µM | [14] > 100 µM | [15] > 100 µM | [16] > 100 µM | [20] > 100 µM | [17] > 100 µM | [18] > 100 µM | [19] > 100 µM

CC(=O)OC[C@@H](OC(C)=O)[C@@H](OC(C)=O)[C@H]1OC[C@@H]2C[C@H]([C@H]1OC(C)=O)N(Cc1ccccc1)O2
inactive: [1] > 100 µM | [2] > 100 µM | [3] > 100 µM | [4] > 100 µM | [5] > 100 µM | [6] > 100 µM | [7] > 100 µM | [9] > 100 µM | [10] > 100 µM | [11] > 100 µM | [12] > 100 µM | [13] > 100 µM | [14] > 100 µM | [15] > 100 µM | [16] > 100 µM | [20] > 100 µM | [17] > 100 µM | [18] > 100 µM | [19] > 100 µM

CC(C)C1CNC(=O)C2(/C=N/C(C(C)C)CNC(=O)C3(/C=N/1)CCCO3)CCCO2 (centres undefined)
inactive: [1] > 10 µM | [2] > 10 µM | [3] > 10 µM | [4] > 10 µM | [6] > 10 µM | [7] > 10 µM | [8] > 10 µM | [9] > 10 µM | [10] > 10 µM | [11] > 10 µM | [12] > 10 µM | [13] > 10 µM | [14] > 10 µM | [15] > 10 µM | [16] > 10 µM | [20] > 10 µM | [17] > 10 µM | [18] > 10 µM | [19] > 10 µM

COc1ccc(N2C(=O)/C(=C/c3ccc(N(CCC#N)CCC#N)cc3)N=C2c2ccccc2)cc1
inactive: [1] > 100 µM | [3] > 100 µM | [4] > 100 µM | [5] > 100 µM | [6] > 100 µM | [7] > 100 µM | [9] > 100 µM | [10] > 100 µM | [11] > 100 µM | [12] > 100 µM | [13] > 100 µM | [14] > 100 µM | [15] > 100 µM | [16] > 100 µM | [20] > 100 µM | [17] > 100 µM | [18] > 100 µM | [19] > 100 µM

COc1ccc(/C=C2\Oc3cc(OC(C)=O)ccc3C2=O)cc1
inactive: [1] > 100 µM | [2] > 100 µM | [3] > 100 µM | [4] > 100 µM | [5] > 100 µM | [6] > 100 µM | [7] 78.2 µM | [8] 19 µM | [9] > 100 µM | [10] > 100 µM | [11] > 100 µM | [12] > 100 µM | [14] > 100 µM | [15] > 100 µM | [16] > 100 µM | [20] > 100 µM | [17] > 100 µM | [18] > 100 µM

CN1C(=O)C23CCCC2CC1(c1ccccc1)S3 (centres undefined)
inactive: [1] > 100 µM | [2] > 100 µM | [3] 78.9 µM | [4] > 100 µM | [6] 45.2 µM | [7] > 100 µM | [8] 91.2 µM | [9] > 100 µM | [10] > 100 µM | [11] > 100 µM | [12] > 100 µM | [13] 41 µM | [14] > 100 µM | [15] > 100 µM | [16] 90.4 µM | [20] > 100 µM | [17] > 100 µM | [18] > 100 µM | [19] > 100 µM

CCCCN1C(=O)CC2[C@@H]3CCc4cc(OC)ccc4C3CC[C@]2(C)C1=O (some centres undefined)
inactive: [1] > 10 µM | [2] > 10 µM | [3] > 10 µM | [4] > 10 µM | [5] > 10 µM | [6] > 10 µM | [7] 7.93 µM | [9] > 10 µM | [10] > 10 µM | [11] > 10 µM | [12] > 10 µM | [14] > 10 µM | [15] > 10 µM | [16] > 10 µM | [20] > 10 µM | [17] > 10 µM | [18] > 10 µM | [19] > 10 µM
